Structures can show the parent of a compound that is named as a salt.
Tests used:
[1] = Equilibration in solvents and buffers: form conversion
[2] = Intrinsic dissolution rate, rotation disk method; format: physicochemical
Protocol: Intrinsic Dissolution: […] […] Pellets of the other salts remained intact for at least several minutes enabling the determination of the intrinsic dissolution rate. Dissolution rate studies were performed using the rotation disk method ([…] Instrument). A single rotation speed of 200 r.p.m. was used to dissolve drug substance into a 500 mL vessel at 37° C. The solution was continuously pumped through a UV cell measurement and returned to the dissolution vessel.

[3] = Solid samples held at 93% r.h. (XRPD, TGA); format: physicochemical; settings: for Solid State (EQ 93% r.h.) Crystallinity by XRPD: either 7 or 10 days
Protocol: An approximate solubility of the below-listed salts was determined in water and at pH 1 by suspending 5-15 mg of the salt in 1 mL of solvent. The samples were allowed to equilibrate at ambient temperature for at least 20 hours. The supernatant was filtered and used for the solubility determination, which was done gravimetrically, for the aqueous solubility, and by UV-VIS spectroscopy for pH 1. The solid residue was analyzed by XRPD. […] They were subsequently analyzed by XRPD and TGA, if the latter deemed necessary. Only irreversible or slowly reversible events can be detected.

[4] = Solubility, 24-hour equilibration at room temperature; format: physicochemical
Protocol: Aqueous Solubility: A carefully weighted amount (20-50 mg) of sample is dissolved in 1 ml of solvent with 24-hour equilibration at room temperature. The solubility was determined either gravimetrically or by UV-VIS spectrometry. The pH of the clear solution was also measured. However, the difficulty of determining salt solubilities in water should be stressed, since upon dissolution dissociation to the free form is possible, which affects both the solubility and the pH. It's not unlikely that attempts to make solutions of a salt at a concentration well below the reported solubility of the salt to be unsuccessful (for a full discussion see: M. Pudipeddi, A. T. M. Serajuddin, D. J. W. Grant, and P. H. Stahl in “Handbook of Pharmaceutical Salts Properties Selection and Use” page 27 and references therein).

[5] = Solution stability (HPLC); format: physicochemical
Protocol: (§1) All samples were prepared/diluted to a concentration of 0.2 mg/mL in methanol prior to analysis by HPLC. A freshly prepared sample of each salt was used as the reference standard for external standard calibration analysis.

[6] = Stability of mixtures with excipients; format: physicochemical
Protocol: as §1

Solid-state stability = format: physicochemical; settings: for Bulk stability (XRPD): 1 week
Protocol: as §1

[7] = 2 mg/mL in methanol, 1 week at 50° C.
[8] = 2 mg/mL in water, 1 week at 50° C.
[9] = 2 mg/mL, 100 mM lactate buffer pH 3.5, 1 week at 50° C.
[10] = 2% in 0.5% HPMC 4000, 1 day at RT
[11] = 2% in 0.5% Klucel HF, 1 day at RT
[12] = 2% in 0.8% Tween 80, 1 day at RT
[13] = 5% solution, 1 day at RT (diluted 1:100 in pH 6.8 buffer)
[14] = Bulk stability, 2 weeks, 50° C.
[15] = Bulk stability, 2 weeks, 50° C./20% water
[16] = Bulk stability, 2 weeks, 50° C./75% r.h.
[17] = Light study, 1200 kLux (300-800 nm)
[18] = Mixture 1: 50% PVP + 50% Crospovidone, 50° C./75% r.h., 2 weeks
[19] = Mixture 2: 50% Starch 1500 + 5% MCC 102, 50° C./75% r.h., 2 weeks
[20] = Mixture 3: 5% PVP + 5% Crospovidone + 10% Starch 1500 + 80% MCC 102, 50° C./75% r.h., 2 weeks
[21] = Mixture 4: 99% Lactose + 1% BHT/BHA, 50° C./75% r.h., 2 weeks
[22] = Mixture 5: 99% Mannitol + 1% BHT/BHA, 50° C./75% r.h., 2 weeks
[23] = Mixture 6: 50% Mannitol + 47% HPCLH21 + 1% BHT/BHA + 2% Magnesium Stearate, 50° C./75% r.h., 2 weeks
[24] = Mixture 7: 50% Cetyl Alcohol + 49% HPCLH21 + 1% Magnesium Stearate, 50° C./75% r.h., 2 weeks
[25] = Mixture 8: 100% PEG 3350, 50° C./75% r.h., 2 weeks

Molecule: Cc1[nH]c2ccccc2c1CCNCc1ccc(/C=C/C(=O)NO)cc1 [Form A of the mesylate salt]
- conversion upon equilibration ([1]; 0.1 N HCl): to the hydrochloride salt
- conversion upon equilibration ([1]; phosphate buffer (pH=6.8)): to the free base
- conversion upon equilibration ([1]; water / aqueous solutions): converts to form B

Molecule: CC(O)C(=O)O.Cc1[nH]c2ccccc2c1CCNCc1ccc(/C=C/C(=O)NO)cc1 [Anhydrous DL-lactate salt, 1:1 anhydrous DL-lactate salt of N-hydroxy-3-[4-[[[2-(2-methyl-1H-indol-3-yl)ethyl]amino]methyl]phenyl]-2E-2-propenamide]
- Intrinsic Dissolution Rate ([2]; 0.1N HCl (Table 19)): 0.13
- Intrinsic Dissolution Rate ([2]; Water (Table 19)): 0.14
- Intrinsic Dissolution Rate ([2]; pH = 4 (Table 19)): 0.09

Molecule: Cc1[nH]c2ccccc2c1CCNCc1ccc(/C=C/C(=O)NO)cc1.Cc1[nH]c2ccccc2c1CCNCc1ccc(/C=C/C(=O)NO)cc1.O=C(O)CC(=O)O [Malonate, 2:1 malonate (hemi-malonate) salt of N-hydroxy-3-[4-[[[2-(2-methyl-1H-indol-3-yl)ethyl]amino]methyl]phenyl]-2E-2-propenamide]
- Solid State (EQ 93% r.h.) Form by XRPD ([3]; 10 days): No change

Molecule: 1:1 propionate salt of N-hydroxy-3-[4-[[[2-(2-methyl-1H-indol-3-yl)ethyl]amino]methyl]phenyl]-2E-2-propenamide
- Solid State (EQ 93% r.h.) Crystallinity by XRPD [3]: Poor

Molecule: Cc1[nH]c2ccccc2c1CCNCc1ccc(/C=C/C(=O)NO)cc1.O=P(O)(O)O [Phosphate, 1:1 phosphate salt of N-hydroxy-3-[4-[[[2-(2-methyl-1H-indol-3-yl)ethyl]amino]methyl]phenyl]-2E-2-propenamide]
- Solid State (EQ 93% r.h.) Form by XRPD ([3]; 7 days): No change

Molecule: CC(O)C(=O)O.Cc1[nH]c2ccccc2c1CCNCc1ccc(/C=C/C(=O)NO)cc1 [DL-lactate salt, lactate salt of N-hydroxy-3-[4-[[[2-(2-methyl-1H-indol-3-yl)ethyl]amino]methyl]phenyl]-2E-2-propenamide]
- aqueous solubility, in words [4]: excellent
- intrinsic dissolution (rate), in words [2]: good
- stability characteristics, in words ([5]; both in solution and in the solid state): very good stability
- stability with all excipient mixtures tested, in words ([6]; after 2 weeks at 50° C./75% r.h.): very good stability

Molecule: Cc1[nH]c2ccccc2c1CCNCc1ccc(/C=C/C(=O)NO)cc1.O=C(O)c1cc(O)ccc1O [Gentisate, 1:1 gentisate salt of N-hydroxy-3-[4-[[[2-(2-methyl-1H-indol-3-yl)ethyl]amino]methyl]phenyl]-2E-2-propenamide]
- Solid State (EQ 93% r.h.) Form by XRPD ([3]; 10 days): No change

Molecule: Cc1[nH]c2ccccc2c1CCNCc1ccc(/C=C/C(=O)NO)cc1.Cc1[nH]c2ccccc2c1CCNCc1ccc(/C=C/C(=O)NO)cc1.O=C(O)/C=C/C(=O)O [Fumarate, 2:1 fumarate salt (hemi-fumarate) of N-hydroxy-3-[4-[[[2-(2-methyl-1H-indol-3-yl)ethyl]amino]methyl]phenyl]-2E-2-propenamide]
- Solid State (EQ 93% r.h.) Form by XRPD ([3]; 10 days): No change

Molecule: CC(O)C(=O)O.Cc1[nH]c2ccccc2c1CCNCc1ccc(/C=C/C(=O)NO)cc1.O (racemic) [Monohydrate DL-lactate salt, 1:1 monohydrate DL-lactate salt of N-hydroxy-3-[4-[[[2-(2-methyl-1H-indol-3-yl)ethyl]amino]methyl]phenyl]-2E-2-propenamide]
- Intrinsic Dissolution Rate ([2]; 0.1N HCl (Table 19)): 0.02
- Intrinsic Dissolution Rate ([2]; Water (Table 19)): 0.06
- Intrinsic Dissolution Rate ([2]; pH = 4 (Table 19)): 0.08
- pH of initial mixture ([5]; 2 mg/mL in 100 mM lactate buffer, pH 3.5): 3.57
- % DP (total degradation products) [5, 7]: 0.71 % area
- assay [5, 7]: [102.8]
- pH of initial mixture ([5]; 2 mg/mL in water): 6.30
- % DP (total degradation products) [5, 8]: 1.22 % area
- CL (appearance) [5, 8]: A↓
- assay [5, 8]: [98.85]
- % DP (total degradation products) [5, 9]: 1.31 % area
- CL (appearance) [5, 9]: A↓*
- assay ([5]; 2 mg/mL, 100 mM lactate buffer pH 3.5, 1 week at 50° C., external standard): [99.12]
- % DP (total degradation products) ([5]; 2% in 0.5% CMC, 1 day at RT): 0.49 % area
- CL (appearance) ([5]; 2% in 0.5% CMC, 1 day at RT): A↓↓
- assay ([5]; 2% in 0.5% CMC, 1 day at RT): [77.50]
- % DP (total degradation products) [5, 10]: 0.41 % area
- assay [5, 10]: [96.42]
- % DP (total degradation products) [5, 11]: 0.43 % area
- assay [5, 11]: [96.99]
- % DP (total degradation products) [5, 12]: 0.42 % area
- assay [5, 12]: [95.06]
- % DP (total degradation products) [5, 13]: 0.52 % area
- CL (appearance) [5, 13]: A↓
- assay [5, 13]: [99.24]
- Unstressed (% Area) ([5]; unstressed baseline of the stability study): 99.51% Area
- Bulk stability (XRPD) (Solid-state stability; 80° C.): no change
- Bulk stability (XRPD) (Solid-state stability; 80° C./75% r.h.): no change
- % DP (total degradation products) (Solid-state stability; [14]): 0.43 % area
- assay (Solid-state stability; [14]): [99.31]
- % DP (total degradation products) (Solid-state stability; [15]): 0.51 % area
- assay (Solid-state stability; [15]): [100.3]
- % DP (total degradation products) (Solid-state stability; [16]): 0.43 % area
- assay (Solid-state stability; [16]): [99.86]
- % DP (total degradation products) (Solid-state stability; [17]): 1.68 % area
- CL (appearance) (Solid-state stability; [17]): C (C = medium discoloration)
- assay (Solid-state stability; [17]): [98.65]
- % DP (total degradation products) [6, 18]: 0.6 % area
- % DS (drug substance) [6, 18]: 99.4 % area
- % DP (total degradation products) [6, 19]: 0.4 % area
- % DS (drug substance) [6, 19]: 99.6 % area
- % DP (total degradation products) [6, 20]: 0.5 % area
- % DS (drug substance) [6, 20]: 99.5 % area
- % DP (total degradation products) [6, 21]: 0.5 % area
- % DS (drug substance) [6, 21]: 99.5 % area
- % DP (total degradation products) [6, 22]: 0.5 % area
- % DS (drug substance) [6, 22]: 99.5 % area
- % DP (total degradation products) [6, 23]: 0.6 % area
- % DS (drug substance) [6, 23]: 99.3 % area
- % DP (total degradation products) [6, 24]: 0.5 % area
- % DS (drug substance) [6, 24]: 99.5 % area
- % DP (total degradation products) [6, 25]: 0.6 % area
- % DS (drug substance) [6, 25]: 99.4 % area
- % DP (total degradation products) ([6]; Standard, freshly prepared): 0.4 % area
- % DS (drug substance) ([6]; Standard, freshly prepared): 99.6 % area

Molecule: Cc1[nH]c2ccccc2c1CCNCc1ccc(/C=C/C(=O)NO)cc1.Cc1[nH]c2ccccc2c1CCNCc1ccc(/C=C/C(=O)NO)cc1.O=C(O)CCC(=O)O [Succinate, 2:1 succinate (hemi-succinate) salt of N-hydroxy-3-[4-[[[2-(2-methyl-1H-indol-3-yl)ethyl]amino]methyl]phenyl]-2E-2-propenamide]
- Solid State (EQ 93% r.h.) Form by XRPD ([3]; 10 days): No change

Molecule: Cc1[nH]c2ccccc2c1CCNCc1ccc(/C=C/C(=O)NO)cc1.O=C(O)c1ccccc1 [Benzoate, 1:1 benzoate salt of N-hydroxy-3-[4-[[[2-(2-methyl-1H-indol-3-yl)ethyl]amino]methyl]phenyl]-2E-2-propenamide]
- Solid State (EQ 93% r.h.) Form by XRPD ([3]; 7 days): No change

Molecule: CC(=O)O.Cc1[nH]c2ccccc2c1CCNCc1ccc(/C=C/C(=O)NO)cc1 [Acetate, 1:1 acetate salt of N-hydroxy-3-[4-[[[2-(2-methyl-1H-indol-3-yl)ethyl]amino]methyl]phenyl]-2E-2-propenamide]
- Solid State (EQ 93% r.h.) Crystallinity by XRPD [3]: Good
- Solid State (EQ 93% r.h.) Form by XRPD ([3]; either 7 or 10 days (time not given)): converted to a new form
- Solid State (EQ 93% r.h.) LOD by TGA ([3]; after 93% r.h. storage, (105° C.)): LOD = 8.8%
